From ChEMBL document CHEMBL1201862, “PubChem BioAssay data set” (2004)
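96-well plates; 48 h exposure; 5 concentrations. Endpoints by linear interpolation between flanking doses. Not reached: highest tested concentration assigned. At the GI50, growth is halved.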 Calls of active or inactive are those of the source. Rule as the data show it: active = GI50 up to about 1.1 µM and inactive = higher.

Assays:
Experiment in all cases: inhibition of tumour cell growth, NCI panel, 48 h
[1] = test system: NCI-H226
[2] = test system: TK-10
[3] = test system: CCRF-CEM
[4] = test system: SF-295
[5] = test system: NCI-H522
[6] = test system: SK-MEL-28
[7] = test system: SF-268
[8] = test system: SW-620
[9] = test system: SK-MEL-2
[10] = test system: U-251
[11] = test system: 786-0
[12] = test system: M14
[13] = test system: OVCAR-3
[14] = test system: PC-3
[15] = test system: SNB-75
[16] = test system: RPMI-8226
[17] = test system: HCT-15
[18] = test system: K562
[19] = test system: MCF7
[20] = test system: T47D

SMILES: CS(=O)(=O)c1nc(-c2cc3c(c(S(C)(=O)=O)n2)CCCC3)cc2c1CCCCC2
- GI50 [1]: > 100 µM (inactive)
- GI50 [2]: > 100 µM (inactive)
- GI50 [3]: > 100 µM (inactive)
- GI50 [4]: > 100 µM (inactive)
- GI50 [5]: 21.1 µM (inactive)
- GI50 [6]: > 100 µM (inactive)
- GI50 [7]: 16.8 µM (inactive)
- GI50 [8]: > 100 µM (inactive)
- GI50 [9]: > 100 µM (inactive)
- GI50 [10]: > 100 µM (inactive)
- GI50 [11]: > 100 µM (inactive)
- GI50 [12]: > 100 µM (inactive)
- GI50 [13]: > 100 µM (inactive)
- GI50 [14]: > 100 µM (inactive)
- GI50 [15]: 22.4 µM (inactive)
- GI50 [16]: > 100 µM (inactive)
- GI50 [17]: > 100 µM

SMILES: C=C1CCCC2[C@](C)(CC3=C(Cl)C(=O)C=C(OC)C3=O)C(C)CC[C@]12C (stereo partly specified)
- GI50 [1]: 7.6 µM (inactive)
- GI50 [2]: 4.34 µM (inactive)
- GI50 [3]: 1.45 µM (inactive)
- GI50 [4]: 7.41 µM (inactive)
- GI50 [5]: 1.16 µM (inactive)
- GI50 [6]: 7.31 µM (inactive)
- GI50 [18]: 1.67 µM (inactive)
- GI50 [7]: 5.09 µM (inactive)
- GI50 [8]: 3.02 µM (inactive)
- GI50 [9]: 6.64 µM (inactive)
- GI50 [10]: 3.44 µM (inactive)
- GI50 [11]: 1.85 µM (inactive)
- GI50 [12]: 4.33 µM (inactive)
- GI50 [13]: 5.93 µM (inactive)
- GI50 [14]: 1.58 µM (inactive)
- GI50 [16]: 1.63 µM (inactive)
- GI50 [19]: 1.49 µM (inactive)
- GI50 [17]: 3.46 µM

SMILES: N#C/C(=N\c1ccccc1N(C(=O)c1ccccc1)C(=O)c1ccccc1)c1ccccc1
- GI50 [1]: > 69.5 µM (inactive)
- GI50 [2]: > 100 µM (inactive)
- GI50 [3]: 2.25 µM (inactive)
- GI50 [4]: 8.89 µM (inactive)
- GI50 [5]: 4.91 µM (inactive)
- GI50 [6]: > 100 µM (inactive)
- GI50 [18]: 3.49 µM (inactive)
- GI50 [7]: > 100 µM (inactive)
- GI50 [8]: 6.52 µM (inactive)
- GI50 [9]: 42.1 µM (inactive)
- GI50 [10]: 10.3 µM (inactive)
- GI50 [11]: > 91.6 µM (inactive)
- GI50 [12]: > 100 µM (inactive)
- GI50 [13]: 8.91 µM (inactive)
- GI50 [15]: > 100 µM (inactive)
- GI50 [16]: 5.97 µM (inactive)
- GI50 [17]: 5.14 µM

SMILES: Cc1cc(Cl)cc2c1NC(=O)C2(O)C(C)C(=O)c1ccc(Cl)cc1 (stereo unspecified)
- GI50 [1]: > 60.1 µM (inactive)
- GI50 [2]: > 100 µM (inactive)
- GI50 [3]: 30.2 µM (inactive)
- GI50 [4]: > 92.5 µM (inactive)
- GI50 [5]: 39.9 µM (inactive)
- GI50 [6]: > 62.1 µM (inactive)
- GI50 [18]: > 58.9 µM (inactive)
- GI50 [7]: > 71.9 µM (inactive)
- GI50 [8]: > 74.8 µM (inactive)
- GI50 [9]: > 100 µM (inactive)
- GI50 [10]: 72.4 µM (inactive)
- GI50 [11]: 85.7 µM (inactive)
- GI50 [12]: > 100 µM (inactive)
- GI50 [13]: 49.9 µM (inactive)
- GI50 [15]: > 59.3 µM (inactive)
- GI50 [16]: 31.8 µM (inactive)
- GI50 [17]: > 89.1 µM

SMILES: Cc1cc(C#N)c(Nc2c(C)cccc2[N+](=O)[O-])s1
- GI50 [1]: > 100 µM (inactive)
- GI50 [3]: 16.6 µM (inactive)
- GI50 [4]: 28.8 µM (inactive)
- GI50 [5]: 30.4 µM (inactive)
- GI50 [20]: 12.4 µM (inactive)
- GI50 [6]: 76.9 µM (inactive)
- GI50 [18]: > 100 µM (inactive)
- GI50 [7]: 28 µM (inactive)
- GI50 [8]: > 100 µM (inactive)
- GI50 [10]: 35.7 µM (inactive)
- GI50 [11]: 26.9 µM (inactive)
- GI50 [12]: > 100 µM (inactive)
- GI50 [13]: 29.5 µM (inactive)
- GI50 [14]: 17.3 µM (inactive)
- GI50 [15]: 21.5 µM (inactive)
- GI50 [16]: > 100 µM (inactive)
- GI50 [17]: 50 µM

SMILES: COC(=O)[C@H](CC(C)C)NC1=C(Cl)C(=O)c2c(O)ccc(O)c2C1=O
- GI50 [1]: > 10 µM (inactive)
- GI50 [2]: > 10 µM (inactive)
- GI50 [3]: 4.31 µM (inactive)
- GI50 [4]: > 10 µM (inactive)
- GI50 [5]: > 10 µM (inactive)
- GI50 [20]: > 10 µM (inactive)
- GI50 [6]: > 10 µM (inactive)
- GI50 [18]: > 10 µM (inactive)
- GI50 [7]: > 10 µM (inactive)
- GI50 [8]: 9.64 µM (inactive)
- GI50 [9]: > 10 µM (inactive)
- GI50 [10]: > 10 µM (inactive)
- GI50 [11]: 6.97 µM (inactive)
- GI50 [12]: 3.45 µM (inactive)
- GI50 [13]: 1.73 µM (inactive)
- GI50 [14]: > 10 µM (inactive)
- GI50 [15]: > 10 µM (inactive)
- GI50 [16]: 4.81 µM (inactive)
- GI50 [17]: 3.05 µM

SMILES: Cc1ccc(-n2c(N)c(C#N)c3[nH]nc(N)c3c2=O)cc1
- GI50 [1]: 41 µM (inactive)
- GI50 [2]: > 100 µM (inactive)
- GI50 [3]: > 100 µM (inactive)
- GI50 [4]: > 100 µM (inactive)
- GI50 [20]: > 100 µM (inactive)
- GI50 [6]: > 100 µM (inactive)
- GI50 [18]: > 100 µM (inactive)
- GI50 [7]: > 100 µM (inactive)
- GI50 [8]: > 100 µM (inactive)
- GI50 [9]: > 100 µM (inactive)
- GI50 [10]: > 100 µM (inactive)
- GI50 [11]: > 100 µM (inactive)
- GI50 [12]: > 100 µM (inactive)
- GI50 [14]: > 100 µM (inactive)
- GI50 [15]: > 100 µM (inactive)
- GI50 [16]: > 100 µM (inactive)
- GI50 [19]: > 100 µM (inactive)
- GI50 [17]: > 100 µM

SMILES: CCNC(=S)N/N=C1\C(=O)Nc2ccc([N+](=O)[O-])cc21
- GI50 [1]: 97.7 µM (inactive)
- GI50 [2]: 18.2 µM (inactive)
- GI50 [3]: 7.06 µM (inactive)
- GI50 [4]: 29.3 µM (inactive)
- GI50 [20]: 31.6 µM (inactive)
- GI50 [6]: 48 µM (inactive)
- GI50 [18]: 52.7 µM (inactive)
- GI50 [7]: 44.7 µM (inactive)
- GI50 [8]: 50.2 µM (inactive)
- GI50 [9]: > 100 µM (inactive)
- GI50 [10]: 29.5 µM (inactive)
- GI50 [11]: 19.1 µM (inactive)
- GI50 [12]: 46.7 µM (inactive)
- GI50 [13]: 40.4 µM (inactive)
- GI50 [14]: 97.5 µM (inactive)
- GI50 [16]: > 100 µM (inactive)
- GI50 [19]: 41 µM (inactive)
- GI50 [17]: 49.3 µM
